# Measurements from patent publication US10376531B2, “Substituted-6,8-dioxabicyclo[3.2.1]octane-2,3-diol compounds as targeting agents of ASGPR” (Pfizer Inc., priority 2014, dated 2019).
# pKd: −log10 of the molar value. Values joined by “and” are separate entries in the source; they are usually repeats but may differ in a detail not shown here. Equal values may be shown once.
# Biological target: Biotinylated ASGPR (ASGPr H1 wild type) (Homo sapiens (Human), UniProt P07306)
# Experiment: Surface plasmon resonance (SPR) binding assay
# Settings: Biacore 3000, 25° C, immobilized biotinylated ASGPR, each run separately reported or n and standard deviation noted, steady state fit for compounds and single conjugates, kinetic fit for multimeric conjugates
# Method: Preparation of Biotinylated ASGPR:
# ASGPr H1 wild type was expressed as an insoluble inclusion body (IB) in E. coli. The cell pellet was re-suspended in TBS buffer pH 8.0 with 0.1 mg/mL lysozyme+25 microg/mL DNase+10 microg/mL RNase+10 mM MgCl2 and stirred on ice until well blended. The mixture was passed through a microfluidizer twice and centrifuged 30 minutes at 30,000×g. The resultant IB pellet was washed with TBS buffer pH 8.0+3M urea and centrifuged and this process was repeated three additional times with water. The IB pellet was
# solubilized in 10 mM Tris+8M urea+100 mM β-mercaptoethanol (pH 8.5), stirred for approximately 20 minutes, then centrifuged to discard any precipitate. For the following manipulations, “buffer T” refers to 20 mM Tris+0.5 M NaCl+25 mM CaCl2. The supernatant was diluted to approximately 0.5 mg/mL in buffer T+2 mM β-mercaptoethanol+8M urea (pH 8.0), then dialysed vs. 8-10× excess volume of buffer T+2 mM β-mercaptoethanol+2 M urea (pH 8.0) overnight at 4° C. Dialysis was repeated in buffer T+1 mM β-mercaptoethanol+1 M urea (pH 8.0) for approximately 24 h at 4° C. with several volume changes with a final dialysis vs. buffer T+5 mM GSH+1 mM GSSG (pH 7.5) with 3 volume changes. The resulting sample was centrifuged and the supernatant was loaded onto an N-acetyl-D-galactosamine agarose packed Pharmacia XK 26 column, equilibrated in buffer T+2 mM TCEP (pH 8.0). The column was washed with this buffer until baseline was re-established. The bound protein was eluted with 20 mM Tris+0.5 M NaCl+2 mM TCEP+2 mM EDTA (pH 8.0). The final yield was approximately 50 mg from 5 L (70 wgm.) E. coli cell pellet. While BSA has one cysteine (Cys34) not engaged in disulfide bonding, this thiol group is often blocked as a mixed disulfide with small thiols such as cysteine, or as the sulfenic acid by aerobic oxidation. […] Mild disulfide reduction conditions were chosen so as not to disrupt buried intra-strand (solvent inaccessible) crosslinks. Thus, immediately prior to biotinylation, the ASGPR sample was first incubated with 1 mM TCEP to ensure that the sample contained a single free thiol. The protein was reacted with a 19-fold molar excess of Pierce Maleimide-PEG2-biotin reagent in PBS overnight at 4° C. Excess biotin was removed from the sample using either PD-10 columns (GE Healthcare) or Zeba Spin Desalting columns (Thermo/Pierce) using manufacturer protocols. LC-MS analysis of the product verified the presence of a single mass with addition of 525 amu consistent with the molecular weight of the maleimide adduct. […] No such outcomes were observed. […] SPR Binding Measurements:
# All SPR measurements with compounds were performed using a Biacore 3000 (GE Healthcare) at 25° C. Biotinylated ASGPR was immobilized typically at 2000-3000 resonance units (Ru) using either SA sensor chips (GE Healthcare) or custom sensor chips with Neutravidin (Pierce Biochemical) immobilized by standard amine coupling to CM5 sensor chips (GE Healthcare). The running buffer was HBS (10 mM HEPES, 150 mM NaCl), 20 mM CaCl2, 0.01% p20, 3% DMSO or 50 mM tris, 150 mM NaCl, 50 mM CaCl2), 0.01% p20, 3% DMSO pH 7.5. Compounds were diluted into running buffer at a concentration of 900 uM and serially diluted 3 fold to 3.7 uM. Compound solutions were injected at 50 ul/min for 1 min followed by a 1 min dissociation in duplicate for each concentration. For the multimeric conjugates (dimers, trimers), the conjugates were diluted in running buffer to concentrations of 100 nM or 10 nM and serially diluted. Conjugates were injected for 2 min and off rates were detected for 300 or 600 sec. After completion of off phase data the compounds were displaced using an injection of 900 uM GalNAc returning the receptor surface to the free state. All data was processed using Scrubber2 (Biologic Software, Inc.) to zero, align, reference and correct for excluded volume effects. […]
# Chain of Biotinylated ASGPR (ASGPr H1 wild type) (P07306 161-278): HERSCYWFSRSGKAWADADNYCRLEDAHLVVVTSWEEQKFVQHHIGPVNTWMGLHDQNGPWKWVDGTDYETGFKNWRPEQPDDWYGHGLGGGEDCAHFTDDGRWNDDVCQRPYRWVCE
pKd,SMILES,Kd
5.14,"CC(=O)N[C@H]1[C@H]2OC[C@](CO)(O2)[C@H](O)[C@@H]1O [Compound 3, N-((1S,2R,3R,4R,5S)-2,3-dihydroxy-1-(hydroxymethyl)-6,8-dioxabicyclo[3.2.1]octan-4-yl)acetamide]",
5.55 and 5.42 and 5.51 and 5.64,"CCCOC[C@@]12CO[C@@H](O1)[C@H](NC(C)=O)[C@@H](O)[C@H]2O [Compound 18, N-[(1S,2R,3R,4R,5S)-2,3-dihydroxy-1-(propoxymethyl)-6,8-dioxabicyclo[3.2.1]oct-4-yl]acetamide]",
5.66 and 5.42 and 5.38,"CCCCCOC[C@@]12CO[C@@H](O1)[C@H](NC(C)=O)[C@@H](O)[C@H]2O [Compound 20, N-{(1S,2R,3R,4R,5S)-2,3-dihydroxy-1-[(pentyloxy)methyl]-6,8-dioxabicyclo[3.2.1]oct-4-yl}acetamide]",
5.92 and 5.74 and 5.68 and 5.85 and 5.62 and 5.54,"O=C(CC(F)(F)F)N[C@H]1[C@H]2OC[C@](CO)(O2)[C@H](O)[C@@H]1O [Compound 28, N-[(1S,2R,3R,4R,5S)-2,3-dihydroxy-1-(hydroxymethyl)-6,8-dioxabicyclo[3.2.1]oct-4-yl]-3,3,3-trifluoropropanamide]",
5.16 and 4.94 and 5.06 and 4.80 and 4.93 and 5.19,"CC(=O)N(C)[C@H]1[C@H]2OC[C@](CO)(O2)[C@H](O)[C@@H]1O [Compound 29, N-[(1S,2R,3R,4R,5S)-2,3-dihydroxy-1-(hydroxymethyl)-6,8-dioxabicyclo[3.2.1]oct-4-yl]-N-methylacetamide]",
3.96 and 4.08 and 3.68 and 3.62 and 3.88 and 3.72,"CN([C@H]1[C@H]2OC[C@](CO)(O2)[C@H](O)[C@@H]1O)S(C)(=O)=O [Compound 30, N-[(1S,2R,3R,4R,5S)-2,3-dihydroxy-1-(hydroxymethyl)-6,8-dioxabicyclo[3.2.1]oct-4-yl]-N-methylmethanesulfonamide]",

# Second part, the compound before the results:
SMILES,pKd,Kd
"[N-]=[N+]=N[C@H]1[C@H]2OC[C@](CO)(O2)[C@H](O)[C@@H]1O [Compound 1, (1S,2R,3R,4R,5S)-4-azido-1-(hydroxymethyl)-6,8-dioxabicyclo[3.2.1]octane-2,3-diol]",5.05,
"CCOC[C@@]12CO[C@@H](O1)[C@H](NC(C)=O)[C@@H](O)[C@H]2O [Compound 17, N-[(1S,2R,3R,4R,5S)-1-(ethoxymethyl)-2,3-dihydroxy-6,8-dioxabicyclo[3.2.1]oct-4-yl]acetamide]",5.28 and 5.47 and 5.59,
"CCCCOC[C@@]12CO[C@@H](O1)[C@H](NC(C)=O)[C@@H](O)[C@H]2O [Compound 19, N-[(1S,2R,3R,4R,5S)-1-(butoxymethyl)-2,3-dihydroxy-6,8-dioxabicyclo[3.2.1]oct-4-yl]acetamide]",5.48 and 5.49 and 5.11,
"CCCCCCOC[C@@]12CO[C@@H](O1)[C@H](NC(C)=O)[C@@H](O)[C@H]2O [Compound 21, N-{(1S,2R,3R,4R,5S)-1-[(hexyloxy)methyl]-2,3-dihydroxy-6,8-dioxabicyclo[3.2.1]oct-4-yl}acetamide]",5.47 and 5.74,
"COCCOCCOCCOCCOC[C@@]12CO[C@@H](O1)[C@H](NC(C)=O)[C@@H](O)[C@H]2O [Compound 22, N-[(1S,2R,3R,4R,5S)-2,3-dihydroxy-1-(2,5,8,11,14-pentaoxapentadec-1-yl)-6,8-dioxabicyclo[3.2.1]oct-4-yl]acetamide]",5.26 and 5.14 and 5.17,
"O=C(N[C@H]1[C@H]2OC[C@](CO)(O2)[C@H](O)[C@@H]1O)C(F)(F)F [Compound 24, N-[(1S,2R,3R,4R,5S)-2,3-dihydroxy-1-(hydroxymethyl)-6,8-dioxabicyclo[3.2.1]oct-4-yl]-2,2,2-trifluoroacetamide]",,1.1 µM and 2 µM and 2.3 µM and 1.4 µM (2×) and 700 nM and 800 nM and 1.6 µM
"CCC(=O)N[C@H]1[C@H]2OC[C@](CO)(O2)[C@H](O)[C@@H]1O [Compound 25, N-[(1S,2R,3R,4R,5S)-2,3-dihydroxy-1-(hydroxymethyl)-6,8-dioxabicyclo[3.2.1]oct-4-yl]propanamide]",5.66 and 5.52 and 5.57 and 5.49 and 5.37,
"CS(=O)(=O)N[C@H]1[C@H]2OC[C@](CO)(O2)[C@H](O)[C@@H]1O [Compound 26, N-[(1S,2R,3R,4R,5S)-2,3-dihydroxy-1-(hydroxymethyl)-6,8-dioxabicyclo[3.2.1]oct-4-yl]methanesulfonamide]",4.22 and 4.02 and 3.85 and 3.96 and 3.83 and 3.93,
"O=C(N[C@H]1[C@H]2OC[C@](CO)(O2)[C@H](O)[C@@H]1O)C(F)F [Compound 27, N-[(1S,2R,3R,4R,5S)-2,3-dihydroxy-1-(hydroxymethyl)-6,8-dioxabicyclo[3.2.1]oct-4-yl]-2,2-difluoroacetamide]",6.15 and 5.72 and 5.92 and 6.00 and 5.82 and 6.30,
"CN(C(=O)OC(C)(C)C)[C@H]1[C@H]2OC[C@](CO)(O2)[C@H](O)[C@@H]1O [Compound 31, tert-butyl [(1S,2R,3R,4R,5S)-2,3-dihydroxy-1-(hydroxymethyl)-6,8-dioxabicyclo[3.2.1]oct-4-yl]methylcarbamate]",4.85 and 4.97 and 4.81 and 4.76,
CO[C@H]1OC(CO)(CO)[C@H](O)[C@H](O)[C@H]1NC(C)=O [II-b],3.70 and 3.62 and 3.59 and 3.52,
